Here are results for seven molecules from US5374711A, “Chemical modification of 2"-amino group in elsamicin a” (Bristol-Myers Squibb Company, priority 1993, dated 1994).

≈ marks a conversion by molar mass, not a printed value. Where a name gives a salt, the structure may show the parent alone.

The subject of one assay is B16 melanoma. Description: In vivo antitumor activity against B16 melanoma in mice (ip, Q4Dx3). More on the design: species or system mice (male BDF1). Particulars: for times less antitumor activity than elsamicin A in terms of MED: B16, vs elsamicin A. On the procedure:
(§1) Among the derivatives tested, in vivo antitumor activity of six derivatives showing relatively potent cytotoxicity was tested in the lymphocytic leukemia P388 and B16 melanoma systems. Female CDF1 (for P388) and male BDF1 (for B16) mice were inoculated by ip injection at 10^6 P388 cells and 0.5 ml of a 10% B16 brei per mouse, respectively (day 0). […] The percent increase of median survival time (MST) of treated animals over that of untreated control animals was determined and reported as T/C %. Compounds showing T/C % values of 125 or greater are considered to have significant antitumor activity. […] The others had no activity at the doses tested. Derivatives 4d4e, and 5 when tested in the B16 system, also gave 10- 30 times less antitumor activity than elsamicin A in terms of MED (Table 5).

For a further assay, the system named is melanotic melanoma B16. Particulars: in vitro and in vivo; cited from earlier work.
Assay [1] concerns murine melanoma B16-F10 cells. The assay is described as follows: cells. Particulars: Mus musculus, B16-F10, 72 h, read-out: Cytotoxicity IC50.
Procedure: For in vitro cytotoxicity experiment, murine melanoma B16-F10 cells were grown and maintained in Eagle's minimum essential medium (Nissui), which contains kanamycin (60 μg/ml), supplemented with heat-inactivated fetal calf serum (10%) and nonessential amino acids (0.6%) at 37° C. under a humidified atmosphere in a 5% CO2 incubator, Exponentially growing B16-F10 cells were harvested, counted and suspended in the culture medium at the concentration of 2.0×10^4 cells/ml. The cell suspension (180 μl) was planted into wells of a 96-well microtiter plate and incubated for 24 hours. Test compounds (20 μl) were added to the wells and the plates were further incubated for 72 hours. The cytotoxic activity was colorimetrically determined at 540 nm after staining viable cells with neutral red solution.
Assay [2] has as its system lymphocytic leukemia P388. The assay is described as follows: In vivo antitumor activity against P388 leukemia in mice (ip, Q1Dx3). On the set-up: species or system mice (female CDF1). The settings on record: for T/C % of MST / prolongation of life-span in the P388-bearing mice: Q1Dx3, ip; for times less active than the parent compound in terms of minimum effective doses (MED): P388, vs elsamicin A. Here is the method:
as §1

The test system of the next assay is leukemia P388. The settings on record: in vitro and in vivo; cited from earlier work.
Assay [3] has as its system aerobic gram-positive bacteria. The settings on record: cited from earlier work.
The next assay has as its system anaerobic bacteria. Particulars: cited from earlier work.
A further assay has as its system lymphoid leukemia L1210. Particulars: in vitro and in vivo; cited from earlier work.

For orientation: IC50 means the concentration that gives 50% inhibition. In the case of `CO[C@@H]1[C@@H](N)[C@@H](O[C@H]2[C@H](Oc3cccc4c(O)c5c(=O)oc6ccc(C)c7c(=O)oc(c34)c5c67)O[C@H](C)[C@H](O)[C@]2(C)O)O[C@H](C)[C@@H]1O` [Compound 1, Elsamicin A], the “T/C % of MST” value in the assay with B16 melanoma (0.1 mg/kg/day, Q4Dx3 ip) is recorded as 115%; with B16 melanoma (0.3 mg/kg/day, Q4Dx3 ip), 128%; in the assay with B16 melanoma (1 mg/kg/day, Q4Dx3 ip), 168%; in the assay with B16 melanoma (3 mg/kg/day, Q4Dx3 ip) it was 208%; with B16 melanoma (10 mg/kg/day, Q4Dx3 ip), at least 282%; in assay [2] (0.1 mg/kg/day), 120%. Besides, the “T/C % of MST” value in assay [2] (0.3 mg/kg/day) is listed as 137%; in assay [2] (1 mg/kg/day), 150%; in assay [2] (3 mg/kg/day), 170%; in assay [2] (10 mg/kg/day), 205%; in assay [2] (20 mg/kg/day), “Tox”. Besides, in the assay on B16 melanoma (10 mg/kg/day, Q4Dx3 ip, day 50), the “No. of survivors/tested on day 50” value was 4/8. In addition, the “activity against murine tumor cells” value in the assay with melanotic melanoma B16, with leukemia P388 and in the assay on lymphoid leukemia L1210 was “exerts activity” throughout. Besides, the IC50 in assay [1] stood at 0.07 µg/mL (≈ 0.107 µM). Also, the antibacterial activity result (in assay [3]; in the assay with anaerobic bacteria) was “exhibits antibacterial activity” in each case.
Regarding `CO[C@H]1[C@@H](O)[C@@H](C)O[C@H](O[C@H]2[C@H](Oc3cccc4c(O)c5c(=O)oc6ccc(C)c7c(=O)oc(c34)c5c67)O[C@H](C)[C@H](O)[C@]2(C)O)[C@@H]1NC(=O)CN` [Compound 3d, 2"-N-Glycylelsamicin A], the results for the “T/C % of MST” value in assay [2] (1 mg/kg/day), in assay [2] (3 mg/kg/day) and in assay [2] (10 mg/kg/day) were 95%, 110% and 110%, respectively.
With `CO[C@H]1[C@@H](O)[C@@H](C)O[C@H](O[C@H]2[C@H](Oc3cccc4c(O)c5c(=O)oc6ccc(C)c7c(=O)oc(c34)c5c67)O[C@H](C)[C@H](O)[C@]2(C)O)[C@@H]1NC(C)C` [Compound 4a, 2"-N-Isopropylelsamicin A], the “T/C % of MST” value worked out at 110% in assay [2] (1 mg/kg/day), 120% in assay [2] (3 mg/kg/day) and 140% in assay [2] (10 mg/kg/day). In addition, the “times less active than the parent compound in terms of minimum effective doses (MED)” value in assay [2] is 10-30 times. The “prolongation of life-span in the P388-bearing mice” value (“prolongation of life-span” below) in assay [2] is recorded as “quite limited prolongation of life-span”.
As for `CN[C@H]1[C@@H](O[C@H]2[C@H](Oc3cccc4c(O)c5c(=O)oc6ccc(C)c7c(=O)oc(c34)c5c67)O[C@H](C)[C@H](O)[C@]2(C)O)O[C@H](C)[C@H](O)[C@@H]1OC` [Compound 4d, 2"-N-Methylelsamicin A], the “T/C % of MST” value in the assay with B16 melanoma (0.3 mg/kg/day, Q4Dx3 ip) is 106%; in the assay on B16 melanoma (1 mg/kg/day, Q4Dx3 ip), 100%; with B16 melanoma (3 mg/kg/day, Q4Dx3 ip) it was 115%; in the assay with B16 melanoma (10 mg/kg/day, Q4Dx3 ip), 135%; in assay [2] (0.1 mg/kg/day) it was 100%; in assay [2] (0.3 mg/kg/day) it was 100%. In addition, the “T/C % of MST” value in assay [2] (1 mg/kg/day) is recorded as 120%; in assay [2] (3 mg/kg/day), 130%; in assay [2] (10 mg/kg/day) it was 145%. Besides, in the assay with B16 melanoma, the “times less antitumor activity than elsamicin A in terms of MED” value was 10- 30 times. Also, in assay [2], the “times less active than the parent compound in terms of minimum effective doses (MED)” value is given as 10-30 times. Moreover, the “prolongation of life-span” value in assay [2] is on record as “quite limited prolongation of life-span”.
Consider `CO[C@H]1[C@@H](O)[C@@H](C)O[C@H](O[C@H]2[C@H](Oc3cccc4c(O)c5c(=O)oc6ccc(C)c7c(=O)oc(c34)c5c67)O[C@H](C)[C@H](O)[C@]2(C)O)[C@@H]1N(C)C` [Compound 4e, 2"-N,N-Dimethylelsamicin A], for which the “T/C % of MST” value is reported as 103% with B16 melanoma (1 mg/kg/day, Q4Dx3 ip); 109% in the assay with B16 melanoma (3 mg/kg/day, Q4Dx3 ip); 132% in the assay with B16 melanoma (10 mg/kg/day, Q4Dx3 ip); 110% in assay [2] (1 mg/kg/day); 130% in assay [2] (3 mg/kg/day); 140% in assay [2] (10 mg/kg/day). The “times less antitumor activity than elsamicin A in terms of MED” value in the assay with B16 melanoma was 10- 30 times. In addition, in assay [2], the “times less active than the parent compound in terms of minimum effective doses (MED)” value is given as 10-30 times. Besides, in assay [2], the “prolongation of life-span” value is on record as “quite limited prolongation of life-span”.
For the molecule `CO[C@H]1[C@@H](O)[C@@H](C)O[C@H](O[C@H]2[C@H](Oc3cccc4c(O)c5c(=O)oc6ccc(C)c7c(=O)oc(c34)c5c67)O[C@H](C)[C@H](O)[C@]2(C)O)[C@@H]1N1CCOCC1` [Compound 4f, 2"-Deamino-2"-morpholinoelsamicin A], the “T/C % of MST” value in assay [2] (1 mg/kg/day) is listed as 100%; in assay [2] (3 mg/kg/day), 105%; in assay [2] (10 mg/kg/day), 100%.
Regarding `CO[C@H]1[C@@H](O)[C@@H](C)O[C@H](O[C@H]2[C@H](Oc3cccc4c(O)c5c(=O)oc6ccc(C)c7c(=O)oc(c34)c5c67)O[C@H](C)[C@H](O)[C@]2(C)O)[C@@H]1NC=N` [Compound 5, 2"-N-Formimidoylelsamicin A hydrochloride], the “T/C % of MST” value with B16 melanoma (0.3 mg/kg/day, Q4Dx3 ip) came out at 100%; in the assay on B16 melanoma (1 mg/kg/day, Q4Dx3 ip), 103%; with B16 melanoma (3 mg/kg/day, Q4Dx3 ip), 126%; in the assay with B16 melanoma (10 mg/kg/day, Q4Dx3 ip), 150%; in assay [2] (0.1 mg/kg/day) it was 100%; in assay [2] (0.3 mg/kg/day), 100%. Further, the “T/C % of MST” value in assay [2] (1 mg/kg/day) is 120%; in assay [2] (3 mg/kg/day), 130%; in assay [2] (10 mg/kg/day), 140%. Further, the “times less antitumor activity than elsamicin A in terms of MED” value with B16 melanoma is reported as 10- 30 times. In assay [2], the “times less active than the parent compound in terms of minimum effective doses (MED)” value is recorded as 10-30 times. For the same molecule, in assay [2], the “prolongation of life-span” value is “quite limited prolongation of life-span”.
